According to patent US7179816B2, “Chemical derivatives and their application as antitelomerase agents” (Aventis Pharma S.A., priority 2001, dated 2007):
pIC50: −log10 of the molar value.

Tests used:
[1] = system: human telomerase (extract of HL60 cells enriched in telomerase activity); test: TRAP assay of telomerase activity (extension of oligonucleotide TS, PCR amplification); assay type: biochemical; details: compounds at 10, 1, 0.1 and 0.01 μg/ml
Description: The antitelomerase biological activity is determined by the following experimental protocol:
Preparation of the Extract Enriched in Human Telomerase Ectivity:
The leukemia line HL60 is obtained from ATCC (American Type Culture Collection, Rockville USA). The cells are cultured in suspension in RPMI 1640 medium containing L-Glutamine at 2 mM, Penicillin 200 U/ml, streptomycin 200 μg/ml, gentamycin 50 μg/ml and supplemented with 10% heat-inactivated fetal calf serum.
An aliquot of 10^5 cells is centrifuged at 3000×G and the supernatant discarded. […]
The samples are then analyzed by electrophoresis on 12% acrylamide gel in a 1×TBE buffer for 1 hour at a voltage of 200 volts, with the aid of a Novex electrophoresis system. […]
The analysis and the quantification of the reaction products are carried out with the aid of an InstantImager apparatus (Pacard).
For each compound concentration tested, the results are expressed as percentage inhibition of the reaction and calculated from the untreated enzymatic control and from the enzyme-free sample (blank) according to the following formula: (Compound Value−blank value/enzymatic control value−blank value)×100. […]
A compound is considered to be active as an antitelomerase agent when the quantity inhibiting 50% of the telomerase reaction is less than 5 μM.

[2] = system: G-quadruplex of oligonucleotide GGGTTAGGGTTAGGGTTAGGG (3.5 repeats of the human telomeric motif); test: G-quadruplex stabilisation, fluorescence Tm of FAM+DABCYL oligonucleotide; assay type: binding; details: test product 1 μM, oligonucleotide 0.2 μM, 0.1 M LiCl, 10 mM cacodylate buffer pH 7.6; reference Tm 44° C.
From the text: The G-quadruplex stabilizing activity may be determined by a method using the formation of a complex with fluorescein, as described below.
All the oligonucleotides, modified or otherwise, were synthesized by Eurogentec SA, Seraing, Belgium. The oligonucleotide FAM+DABCYL carries the catalog reference OL-0371–0802. It has the sequence: […] (SEQ ID NO:1) corresponding to 3.5 repeats of the human telomeric motif (strand rich in G). The fluorescein is chemically attached to the 5′ end, and the DABCYL to the 3′ end, as described by Eurogentec. The concentration of the samples is checked by spectrophotometry, recording the absorbance spectrum between 220 and 700 nm and using the molar extinction coefficient provided by the supplier. […]
All the measurements of fluorescence were carried out on a Spex Fluorolog DM1B apparatus, using an excitation line width of 1.8 nm and an emission line width of 4.5 nm. […] The oligonucleotide alone was analyzed at 20, 30, 40, 50, 60, 70 and 80° C. The emission spectra are recorded using an excitation wavelength of 470 nm. The excitation spectra are recorded using either 515 nm or 588 nm as emission wavelength. […] A high extinction (80–90%) of the fluorescence of fluorescein at room temperature is observed, in agreement with an intramolecular folding of the oligonucleotide at 20° C. in the form of a G-quadruplex. […]

CSc1nc(NCCN(C)C)nc(Nc2ccc3nc(C)cc(N)c3c2)n1 [Example 1-1, N6-[6-(2-dimethylaminoethylamino)-4-methylsulfanyl-[1,3,5]triazin-2-yl]-2-methylquinoline-4,6-diamine]
pIC50 [1]: 6.10
G-4 ΔTm [2]: 6 °C

N6-[(6-(3-dimethylaminopropylamino)-4-diethylamino-[1,3,5]triazin-3-yl]-2-methylquinoline-4,6-diamine [Example 2-1]
pIC50 [1]: 6.05
G-4 ΔTm [2]: 7.9 °C
